Source: EP0415126B1, “Anti-dental plaque agents” (MITSUI NORIN CO., LTD., priority 1989, dated 1991)

Tested on: glucosyltransferase
Assay: Inhibition of water-insoluble glucan formation by crude glucosyltransferase (14C-sucrose, scintillation counting)
Format: biochemical, Streptococcus mutans OMZ 176
Settings: Water-insoluble glucan formation vs control, 60 minutes at 37°C, pH 6.8
Experimental: Crude glucosyltransferase was refined from Streptococcus mutans OMZ 176 according to the method described by Mukasa and Slads in Infect. Immun., 8, 555 (1973) and 9, 419 (1974).
The above GTF, labeled sucrose and the tea polyphenol compounds were mixed together to the following final concentrations, and was regulated with a 50 mM phosphate buffer (with pH 6.8). GTF: 0.34 mg protein/ml 0.1 mM (¹⁴C) sucrose: 0.1 »Ci/»l Present agent: 1 to 10 mg/ml or 1 to 10 mM.
Twenty (20) »l of the mixture solution were subjected to a reaction for 60 minutes at 37°C. After the completion of the reaction, 5 »l of the reaction mixture and 5 »l of supernatant obtained by centrifugation of the reaction mixture at 5,500 x g for 3 minutes were applied to a filter paper respectively, and then developed with a developing solution of butanol-pyridine-water (6:4:3), followed by counting with a scintillation counter. The amount of water-insoluble glucan was found by a difference between the measurements of the reaction mixture and the supernatant. The GTF inhibiting ability is expressed in terms of the rate of inhibiting the formation of water-insoluble glucan with respect to a control to which the tea polyphenol compounds were not added.

| Compound | Inhibition (%) (sample concentration 1.0 mM) | Inhibition (%) (sample concentration 10.0 mM) |
| --- | --- | --- |
| Oc1cc(O)c2c(c1)O[C@H](c1ccc(O)c(O)c1)[C@@H](O)C2 [(+)-Catechin] | 22% | 62% |
| O=c1c(O)cc([C@H]2Oc3cc(O)cc(O)c3C[C@H]2O)cc2c([C@H]3Oc4cc(O)cc(O)c4C[C@H]3O)cc(O)c(O)c12 [Free theaflavin] | 57% | 98% |
| Oc1cc(O)c2c(c1)O[C@H](c1cc(O)c(O)c(O)c1)[C@@H](O)C2 [(+)-Gallocatechin] | 15% | 51% |
| (-)-Epicatechin gallate | 35% | 83% |
| (-)-Epicatechin | 5% | 42% |
| (-)-Gallocatechin | 20% | 30% |
| O=C(O[C@@H]1Cc2c(O)cc(O)cc2O[C@@H]1c1cc(=O)c(O)c2c(O)c(O)cc([C@H]3Oc4cc(O)cc(O)c4C[C@H]3O)c2c1)c1cc(O)c(O)c(O)c1 [Theaflavin monogallate A] | 64% | 97% |
| Oc1cc(O)c2c(c1)O[C@@H](c1ccc(O)c(O)c1)[C@@H](O)C2 [(+)-Epicatechin] | 12% | 42% |
| O=C(O[C@@H]1Cc2c(O)cc(O)cc2O[C@@H]1c1cc(O)c(O)c2c(=O)c(O)cc([C@H]3Oc4cc(O)cc(O)c4C[C@H]3O)cc12)c1cc(O)c(O)c(O)c1 [Theaflavin monogallate B] | 47% | 98% |
| (-)-Catechin | 15% | 45% |
| O=C(O[C@@H]1Cc2c(O)cc(O)cc2O[C@@H]1c1cc(O)c(=O)c2c(O)c(O)cc([C@H]3Oc4cc(O)cc(O)c4C[C@H]3OC(=O)c3cc(O)c(O)c(O)c3)c2c1)c1cc(O)c(O)c(O)c1 [Theaflavin digallate] | 56% | 98% |
| O=C(O[C@@H]1Cc2c(O)cc(O)cc2O[C@H]1c1cc(O)c(O)c(O)c1)c1cc(O)c(O)c(O)c1 [(-)-Gallocatechin gallate] | 47% | 95% |
